# Results reported in patent publication US7291732B2, “Isomeric fused pyrrolocarbazoles and isoindolones” (Cephalon, Inc., priority 1999, dated 2007).
# Read-outs that look alike come from different tables or passages of the source.
# Columns and labels:
# [1] = target: T1, baculovirus-expressed human trkA cytoplasmic domain (Homo sapiens, UniProt P04629); assay: trkA tyrosine kinase activity inhibition, ELISA-based assay; format: biochemical; conditions: for inhibition at 0.3 µM: read-out: trkA (% inhibition @ 300 nM)
# T1 construct: baculovirus-expressed human trkA cytoplasmic domain; made in house
# Description: Selected isomeric fused pyrrolocarbazole and isoindolone compounds were tested for their ability to inhibit the kinase activity of baculovirus-expressed human trkA cytoplasmic domain using an ELISA-based assay as previously described (Angeles et al, Anal. Biochem. 236: 49-55, 1996). Briefly, the 96-well microtiter plate was coated with substrate solution (recombinant human phospholipase C-γl/glutathione S-transferase fusion protein (Rotin et al., EMBO J., II: 559-567, 1992). Inhibition studies were performed in 100 μl assay mixtures containing 50 mM Hepes, pH 7.4, 40 μM ATP, 10 mM MnCl2, 0.1% BSA; 2% DMSO, and various concentrations of inhibitor. The reaction was initiated by addition of trkA kinase and allowed to proceed for 15 minutes at 37° C. An antibody to phosphotyrosine (UBI) was then added, followed by a secondary enzyme-conjugated antibody, alkaline phosphatase-labelled goat anti-mouse IgG (Bio-Rad). The activity of the bound enzyme was measured via an amplified detection system (Gibco-BRL). Inhibition data were analyzed using the sigmoidal dose-response (variable slope) equation in GraphPad Prism.
# [2] = target: T2, baculovirus-expressed VEGF receptor (human flk-1, KDR, VEGFR2) kinase domain (Homo sapiens, UniProt P35968); assay: VEGF receptor kinase activity inhibition, ELISA assay; format: biochemical; conditions: for IC50 / VEGFR kinase (% inhibition @ 300 nM): 40 μM ATP; for IC50: value printed without parentheses, read-out: VEGFR kinase IC50; for VEGFR kinase (% inhibition @ 300 nM): 300 nM compound, value printed in parentheses
# T2 construct: VEGF receptor (human flk-1, KDR, VEGFR2) kinase domain; made in house
# Description: Isomeric fused pyrrolocarbazole and isoindolone compounds were examined for their inhibitory effects on the kinase activity of baculovirus-expressed VEGF receptor (human flk-1, KDR, VEGFR2) kinase domain using the procedure described for the trkA kinase ELISA assay described above. The kinase reaction mixture, consisting of 50 mM Hepes, pH 7.4, 40 μM ATP, 10 mM MnCl2, 0.1% BSA, 2% DMSO, and various concentrations of inhibitor, was transferred to PLC-γ/GST-coated plates. VEGFR kinase was added and the reaction was allowed to proceed for 15 min at 37° C. Detection of phosphorylated product was accomplished by addition of anti-phosphotyrosine antibody (UBI). A secondary enzyme-conjugated antibody was delivered to capture the antibody-phosphorylated PLC-γ/GST complex. The activity of the bound enzyme was measured via an amplified detection system (Gibco-BRL). Inhibition data were analyzed using the sigmoidal dose-response (variable slope) equation in GraphPad Prism Results are summarized in Table 6.
# [3] = target: T3, baculovirus-expressed PDGFβ receptor kinase domain (Homo sapiens, UniProt P09619); assay: PDGF receptor kinase activity inhibition, ELISA assay; format: biochemical; conditions: for inhibition at 1 µM: read-out: PDGFRβ (% inhibition @ 1 μM)
# T3 construct: baculovirus-expressed PDGFβ receptor kinase domain; made in house
# Description: Isomeric fused pyrrolocarbazole and isoindolone compounds were examined for their inhibitory effects on the kinase activity of baculovirus-expressed PDGFβ receptor kinase domain using the trkA kinase ELISA described above. Assays were performed in substrate (PLC-γ/GST)-coated 96-well microtiter plates. Each 100-μl reaction mixture contained 50 mM HEPES, pH 7.4, 20 μM ATP, 10 mM MnCl2, 0.1% BSA, 2% DMSO, and various concentrations of inhibitor. The reaction was initiated by addition of prephosphorylated recombinant human enzyme (10 ng/ml PDGFβ) and allowed to proceed for 15 minutes at 37° C. The prephosphorylated enzyme was prepared prior to use by incubation of the kinase in buffer containing 20 μM ATP and 10 mM MnCl2 for 1 hour at 4 C. Detection of phosphorylated product was done by adding horseradish peroxidase (HRP)-conjugated anti-phosphotyrosine antibody (UBI). The HRP substrate solution containing 3,3′-5,5′-tetramethylbenzidine and hydrogen peroxide was later added and the plates were incubated for 10 minutes at room temperature. The reaction was quenched with acid and the resulting absorbance was read at 450 nm using a Microplate Bio-kinetics Reader (Bio-Tek Instrument EL 312e). Inhibition data were analyzed using the sigmoidal dose-response (variable slope) equation in GraphPad Prism.
# [4] = 300 nM compound, 40 μM ATP, value printed in parentheses
# [5] = 1 μM compound, 20 μM ATP, value printed in parentheses
# T2 sequence (P35968 834-1162 limits assumed): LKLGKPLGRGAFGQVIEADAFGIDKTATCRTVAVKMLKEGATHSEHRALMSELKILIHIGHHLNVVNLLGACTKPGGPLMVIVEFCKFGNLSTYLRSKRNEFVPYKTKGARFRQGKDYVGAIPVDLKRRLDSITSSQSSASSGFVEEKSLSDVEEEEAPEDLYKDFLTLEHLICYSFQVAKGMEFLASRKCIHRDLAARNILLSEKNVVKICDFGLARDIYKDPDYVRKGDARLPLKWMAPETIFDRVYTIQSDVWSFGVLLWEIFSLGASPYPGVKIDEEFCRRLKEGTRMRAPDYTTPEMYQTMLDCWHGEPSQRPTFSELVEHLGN
# T3 sequence (P09619 600-962 limits assumed): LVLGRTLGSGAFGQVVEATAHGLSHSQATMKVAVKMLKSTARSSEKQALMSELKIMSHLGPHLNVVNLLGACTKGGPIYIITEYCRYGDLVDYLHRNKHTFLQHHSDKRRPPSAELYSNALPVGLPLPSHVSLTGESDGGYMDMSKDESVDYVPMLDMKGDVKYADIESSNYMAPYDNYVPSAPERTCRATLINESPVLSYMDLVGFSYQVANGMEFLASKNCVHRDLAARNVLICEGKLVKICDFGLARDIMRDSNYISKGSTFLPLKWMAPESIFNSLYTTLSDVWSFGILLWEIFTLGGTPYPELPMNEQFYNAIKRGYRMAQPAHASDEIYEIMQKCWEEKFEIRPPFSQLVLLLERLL
# T1 sequence (P04629 440-796 limits assumed): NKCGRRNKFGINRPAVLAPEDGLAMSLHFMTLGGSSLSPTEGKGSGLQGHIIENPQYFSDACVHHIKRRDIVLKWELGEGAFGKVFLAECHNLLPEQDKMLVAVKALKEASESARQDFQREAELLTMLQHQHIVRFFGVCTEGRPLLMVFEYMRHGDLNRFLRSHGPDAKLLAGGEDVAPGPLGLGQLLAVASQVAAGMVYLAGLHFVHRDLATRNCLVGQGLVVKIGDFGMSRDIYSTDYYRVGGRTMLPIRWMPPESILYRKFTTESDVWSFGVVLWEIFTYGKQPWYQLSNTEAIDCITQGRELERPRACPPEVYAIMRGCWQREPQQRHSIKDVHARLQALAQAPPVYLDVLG
smiles,measurement,setting,value
O=C1NCc2c3c(c4c(c21)c1ccccc1n4CCO)-c1ccccc1CC3 [Compound X-4],inhibition at 0.3 µM,[1]; [4],15%
same,IC50,[2],138 nM
O=C1NC(=O)c2c1c1c(c3[nH]c4ccccc4c23)-c2ccccc2C1 [IV-1],inhibition at 0.3 µM,[1]; [4],0%
same,IC50,[2],71 nM
same,inhibition at 1 µM,[3]; [5],6%
same,melting point,,> 300 °C
O=c1[nH]c(=O)c2c1c1c(=O)c3ccccc3c1c1[nH]c3ccccc3c12 [IV-2],inhibition at 0.3 µM,[1]; [4],2%
same,IC50,[2],870 nM
same,inhibition at 1 µM,[3]; [5],17%
Cn1c2ccccc2c2c3c(c4c(c21)-c1ccccc1C4)C(=O)NC3=O [IV-3],inhibition at 0.3 µM,[1]; [4],18%
same,IC50,[2],332 nM
same,inhibition at 1 µM,[3]; [5],0%
same,melting point,,> 262 °C
O=C1NC(=O)c2c1c1c(c3[nH]c4ccccc4c23)-c2ccccc2CC1 [IV-5],trkA (% inhibition @ 300 nM),[1]; [4],(14) %
same,IC50,[2],160 nM
same,PDGFRβ (% inhibition @ 1 μM),[3]; [5],(26) %
COc1ccc2[nH]c3c4c(c5c(c3c2c1)C(=O)NC5=O)CCc1ccccc1-4 [IV-6],inhibition at 0.3 µM,[2]; read-out: VEGFR kinase (% inhibition @ 300 nM),14%
O=C1NC(=O)c2c1c1sc3ccccc3c1c1[nH]c3ccccc3c21 [IV-10],inhibition at 0.3 µM,[1]; [4],6%
same,IC50,[2],5330 nM
same,inhibition at 1 µM,[3]; [5],11%
O=C1NC(=O)c2c1c1c(c3[nH]c4ccccc4c23)-c2ccccc2OC1 [IV-11],inhibition at 0.3 µM,[1]; [4],4%
same,IC50,[2],555 nM
same,inhibition at 1 µM,[3]; [5],6%
COCC1c2ccccc2-c2c1c1c(c3c2[nH]c2ccccc23)C(=O)NC1=O (stereo not shown) [IV-12],VEGFR kinase (% inhibition @ 300 nM),[2],(19) %
O=C1NC(=O)c2c1c1c(c3[nH]c4ccccc4c23)-c2ccccc2C1C(O)c1cccnc1 (stereo not shown) [IV-13],VEGFR kinase (% inhibition @ 300 nM),[2],(8) %
O=C1NC(=O)c2c1c1c(c3[nH]c4ccccc4c23)-c2ccccc2C1CO (stereo not shown) [IV-15],VEGFR kinase (% inhibition @ 300 nM),[2],(7) %
O=C1NC(=O)c2c1c1c(c3[nH]c4ccccc4c23)-c2ccccc2C1c1cccs1 (stereo not shown) [IV-16],VEGFR kinase (% inhibition @ 300 nM),[2],(14) %
COCCOCC1c2ccccc2-c2c1c1c(c3c2[nH]c2ccccc23)C(=O)NC1=O (stereo not shown) [IV-17],VEGFR kinase (% inhibition @ 300 nM),[2],(3) %
O=C1NC(=O)c2c1c1c(c3[nH]c4ccccc4c23)-c2ccccc2C1C(O)c1ccncc1 (stereo not shown) [IV-18],VEGFR kinase (% inhibition @ 300 nM),[2],(8) %
N#CCCn1c2ccccc2c2c3c(c4c(c21)-c1ccccc1CC4)C(=O)NC3=O [IV-19],VEGFR kinase (% inhibition @ 300 nM),[2],(4) %
N#CCCCn1c2ccccc2c2c3c(c4c(c21)-c1ccccc1CC4)C(=O)NC3=O [IV-20],VEGFR kinase (% inhibition @ 300 nM),[2],(11) %
CCOC(=O)CCn1c2ccccc2c2c3c(c4c(c21)-c1ccccc1CC4)C(=O)NC3=O [IV-21],VEGFR kinase (% inhibition @ 300 nM),[2],(7) %
O=C(O)CCn1c2ccccc2c2c3c(c4c(c21)-c1ccccc1CC4)C(=O)NC3=O [IV-22],VEGFR kinase (% inhibition @ 300 nM),[2],(8) %
NCCCn1c2ccccc2c2c3c(c4c(c21)-c1ccccc1CC4)C(=O)NC3=O [IV-23],VEGFR kinase (% inhibition @ 300 nM),[2],(0) %
CS(=O)(=O)NCCCn1c2ccccc2c2c3c(c4c(c21)-c1ccccc1CC4)C(=O)NC3=O [IV-24],VEGFR kinase (% inhibition @ 300 nM),[2],(0) %
CC(=O)NCCCn1c2ccccc2c2c3c(c4c(c21)-c1ccccc1CC4)C(=O)NC3=O [IV-25],VEGFR kinase (% inhibition @ 300 nM),[2],(0) %
CNC(=S)NCCCn1c2ccccc2c2c3c(c4c(c21)-c1ccccc1CC4)C(=O)NC3=O [IV-26],VEGFR kinase (% inhibition @ 300 nM),[2],(10) %
O=C(NCCCn1c2ccccc2c2c3c(c4c(c21)-c1ccccc1CC4)C(=O)NC3=O)Nc1ccccc1 [IV-27],VEGFR kinase (% inhibition @ 300 nM),[2],(5) %
CC(C)(C)OC(=O)N1CCCC1C(=O)NCCCn1c2ccccc2c2c3c(c4c(c21)-c1ccccc1CC4)C(=O)NC3=O (stereo not shown) [IV-29],VEGFR kinase (% inhibition @ 300 nM),[2],(1) %
O=C1NC(=O)c2c1c1c(c3c2c2ccccc2n3CCCNC(=O)C2CCCN2)-c2ccccc2CC1 (stereo not shown) [IV-30],VEGFR kinase (% inhibition @ 300 nM),[2],(1) %
CS(=O)(=O)N1CCCC1C(=O)NCCCn1c2ccccc2c2c3c(c4c(c21)-c1ccccc1CC4)C(=O)NC3=O (stereo not shown) [IV-31],VEGFR kinase (% inhibition @ 300 nM),[2],(10) %
CS(=O)(=O)NCc1ccc2[nH]c3c4c(c5c(c3c2c1)C(=O)NC5=O)CCc1ccccc1-4 [IV-34],VEGFR kinase (% inhibition @ 300 nM),[2],(54) %
CNC(=S)NCc1ccc2[nH]c3c4c(c5c(c3c2c1)C(=O)NC5=O)CCc1ccccc1-4 [IV-35],VEGFR kinase (% inhibition @ 300 nM),[2],43%
same,IC50,[2],316 nM
CC(C)(C)OC(=O)C=Cc1ccc2[nH]c3c4c(c5c(c3c2c1)C(=O)NC5=O)CCc1ccccc1-4 [IV-36],VEGFR kinase (% inhibition @ 300 nM),[2],(17) %
O=C(O)C=Cc1ccc2[nH]c3c4c(c5c(c3c2c1)C(=O)NC5=O)CCc1ccccc1-4 [IV-37],VEGFR kinase (% inhibition @ 300 nM),[2],(11) %
CC(C)(C)OC(=O)CCc1ccc2[nH]c3c4c(c5c(c3c2c1)C(=O)NC5=O)CCc1ccccc1-4 [IV-38],VEGFR kinase (% inhibition @ 300 nM),[2],(5) %
O=C1NC(=O)c2c1c1c(c3[nH]c4ccc(C=Cc5ccccn5)cc4c23)-c2ccccc2CC1 [IV-39],VEGFR kinase (% inhibition @ 300 nM),[2],(8) %
O=C(O)CCc1ccc2[nH]c3c4c(c5c(c3c2c1)C(=O)NC5=O)CCc1ccccc1-4 [IV-40],VEGFR kinase (% inhibition @ 300 nM),[2],(10) %
O=C1NC(=O)c2c1c1c(c3c2c2ccccc2n3CCCOCc2ccccc2)-c2ccccc2CC1 [IV-41],VEGFR kinase (% inhibition @ 300 nM),[2],(34) %
O=C1NC(=O)c2c1c1c(c3c2c2ccccc2n3CCCO)-c2ccccc2CC1 [IV-42],VEGFR kinase (% inhibition @ 300 nM),[2],(42) %
N#CC=Cc1ccc2[nH]c3c4c(c5c(c3c2c1)C(=O)NC5=O)CCc1ccccc1-4 [IV-43],VEGFR kinase (% inhibition @ 300 nM),[2],(8) %
N#Cc1ccc2c(c1)c1c3c(c4c(c1n2CCCOCc1ccccc1)-c1ccccc1CC4)C(=O)NC3=O [IV-44],VEGFR kinase (% inhibition @ 300 nM),[2],(3) %
O=C1NCc2c1c1c(c3[nH]c4ccccc4c23)-c2ccccc2C1 [IX-1],trkA (% inhibition @ 300 nM),[1]; [4],(9) %
same,VEGFR kinase (% inhibition @ 300 nM),[2],(10) %
same,PDGFRβ (% inhibition @ 1 μM),[3]; [5],(23) %
O=C1NCc2c1c1c(c3[nH]c4ccccc4c23)-c2ccccc2CC1 [IX-2],trkA (% inhibition @ 300 nM),[1]; [4],(9) %
same,IC50,[2],8750 nM
same,PDGFRβ (% inhibition @ 1 μM),[3]; [5],(8) %
O=C1NC(=O)c2c1c1c(c3[nH]c4ncccc4c23)-c2ccccc2CC1 [XIII],IC50,[2],8390 nM
same,inhibition at 1 µM,[3]; [5],10%
O=C1NC(=O)c2c1c1ccc3sccc3c1c1[nH]c3ccccc3c21 [XVII],inhibition at 0.3 µM,[1],10%
same,IC50,[2],796 nM
same,inhibition at 1 µM,[3],24%
